Reference: paper PMC5855875, “Teixobactin analogues reveal enduracididine to be non-essential for highly potent antibacterial activity and lipid II binding” (Chemical Science, 2017)
In brackets after ≈: the same amount, converted by molar mass. Bridge positions count the residues as written; N and C are the ends. Square brackets hold non-standard residues; d marks the D form. Peptide text beside a SMILES is read from it. d(aIle) = CC[C@H](C)[C@@H](N)C(=O)O; dNMeF = CN[C@H](Cc1ccccc1)C(=O)O

What was measured:
[1] = tested on: MRSA ATCC 33591; assay: microbe, parasite or virus in culture; conditions: ATCC 33591, 24 h
Procedure: (§1) were grown in Mueller Hinton broth (Oxoid) in triplicate. All incubations were at 37°C. Dilutions were carried out in triplicate. 100 µl of autoclaved Mueller Hinton broth was added to wells 2-12 in a 96-well plate. 200 µl of the peptide was added to well one at a concentration of 256 µg/mL. 100µl of peptide in well one was taken up and pipetted into well two. The mixture was then mixed via pipetting before 100µl was taken up and pipetted into well three. This process was repeated up to well 11. Once […]
(§2) peptide present. Thus, the concentrations (in µg/mL) were: 256, 128, 64, 32, 16, 8, 4, 2, 1, 0.5, 0.25 and no peptide present. Each well was then inoculated with 100µl of bacteria that had been diluted to an […]
(§3) This was repeated three times. The 96-well plates were then incubated at 37°C for 24 hours. The MIC was determined to be the lowest concentration at which there was no growth visible. […]
(§4) was repeated at an altered initial concentration of 64 µg/ml. Therefore, the new concentrations for MIC […]
(§5) VIII. MIC testing (extended panel)
(§6) Bacterial cultures were grown overnight i n Mueller-Hinton Agar (MHA) plates and adjusted to a final concentration of 10 5 – 106 CFU/ml. 100 µl of inoculum in Meuller -Hinton broth (MHB) was mixed with equal volume of peptides (dissolved in MHB) at 2x their concentration in a 96 well plate. In parallel experiments, MIC values were determined in the media containing polysorbate 80 (0 .002%, v/v) to […]

[2] = tested on: MRSA 2: MRSA DR 42412 (sputum); assay: microbe, parasite or virus in culture
Procedure: as §5, §6
(§7) prevent non-specific adsorption of the peptides to plastic surfaces. The final peptides concentrations […]
(§8) Positive and negative controls contained 200 µl of inoculum without any peptide dissolved in broth, respectively. The 96 well plates were then incubated at 37 °C for 24 h. […]
(§9) 80. Strain information: MRSA 1: MRSA ATCC 700699, MRSA 2: MRSA DR 42412 (sputum), MRSA
(§10) 3: MRSA DM21455 (eye). […] Staphylococcus aureus ATCC

[3] = tested on: MRSA 1: MRSA ATCC 700699; assay: microbe, parasite or virus in culture
Procedure: as §5, §6, §7
(§11) Positive and negative controls contained 200 µl of inoculum without any peptide dissolved in broth, respectively. The 96 well plates were then incubated at 37 °C for 24 h.
(§12) All the experiments were performed in two independent duplicates and the MIC was determined as the […]
(§13) Minimum bactericidal concentration
(§14) The lowest concentration in which no visible colonies could be detected was taken as the MBC.
as §9, §10

[4] = tested on: MRSA 3: MRSA DM21455 (eye); assay: microbe, parasite or virus in culture
Procedure: as §5, §6, §7, §11, §12, §13, §14, §9, §10

[5] = tested on: Staphylococcus aureus ATCC 29213; assay: microbe, parasite or virus in culture
Procedure: as §5, §6, §7, §11, §12, §13, §14, §9, §10

[6] = Lipid II TLC binding assay; conditions: peptide : lipid II 2 : 1; 50 mM Tris/HCl, pH 7.5, 30 min, room temperature; three independent experiments
Procedure: X. Complex formation of teixobactin with lipid II and geranyl pyrophosphate Complex formation of teixobactin analogues 8 (Ala10-teixobactin) and 16 (Arg10-teixobactin) with lipid II and geranyl pyrophosphate was performed using TLC as described previously.7 Binding of teixobactin to lipid II and geranyl pyrophosphate was analysed by incubating 30 µL of 2 nmol of each precursor with 2 or 4 nmoles of teixobactin in 50 mM Tris/HCl, pH 7.5, for 30 min at room temperature. Complex formation was analysed by extracting unbound precursors from the reaction mixture with 30 µL n- butanol/6M pyridine acetate (pH 4.2) (2:1; vol/vol) followed by TLC analysis of the organic layer using chloroform/methanol/water/ammonia (88:48:10:1, v/v/v/v) as the solvent and detection of lipid/phosphate containing precursors by phosphomolybdic acid staining. The TLC figures represent the results obtained through thr ee independent experiments.
Figure S76 : Binding of teixobactin analogues 8 (Ala10-teixobactin ) and 16 (Arg10-teixobactin) with lipid II using the protocols described in literature .7 Partial binding is observed when the ratio of lipid II to the analogue is 1:1 (indicated by lighter spots on the TLC) and complete binding is observed when the ratio of lipid II to the analogue is 1:2 in case of analogue 16 and 1:4 in case of analogue 8 (indicated […]
(§15) (also on this page, place not known: polyso rbate vancomycin , concentr ation 80 . wer e µ l (10 1-105 10 10 previously n - TL C three S76: (Ala10-teixobactin) literature.7 Lipid II Lipid II: Compound 8 = 1:1 Lipid II: Compound 16 = 1:1 Lipid II: Compound 8 = 1:2 Lipid II: Compound 16 = 1:2 Lipid II: Compound 8 = 1:4)

[7] = tested on: M. smegmatis ATCC 607; assay: microbe, parasite or virus in culture; conditions: ATCC 607, 72 h
Procedure: as §1, §2, §3, §4
Middlebrook 7H9 broth (SIGMA) supplemented to 5% Middlebrook ADC (SIGMA) growth

[8] = tested on: MRSA DM21455; assay: Time-kill kinetics; type: cell-based, Methicillin-resistant Staphylococcus aureus; conditions: 0.5 μg mL^–1; MHB containing 0.002% v/v polysorbate 80; 37 °C; average of two independent experiments
Procedure: IX. Time-dependent killing of bacteria by teixobactin analogues 12 and 13 Time-kill kinetics against MRSA DM21455 strains (clinical isolates from patients) was carried out in MHB. Cultures were grown overnight in MHA plates and adjusted to a final inoculum of 10^5 – 10^6 CFU/ml in MHB (containing 0.002% v/v, polysorbate 80) with teixobactin analogues 12 and 13 maintained at a final concentration of 0.5 µg/ml. For vancomycin, the concentration was varied from 0.5 – 16 µg/ml without polysorbate 80. The tubes were then incubated at 37 °C. 100 µl of cell suspension was withdrawn at various time points (0, 2, 4, 8, 24 h), serially diluted (101-105 fold dilutions) and plated onto a MHA plates and incubated for 24 h at 37 °C.
Colonies were then enumerated […]. Colony counting too numerous to count (>300 colonies) was taken as 1010 CFU. Average values from two independent experiments are reported. […]
as §15

[9] = tested on: VRE 1: VRE ATCC 700802; assay: organism not typed
Procedure: as §5, §6, §7, §8, §9, §10

[10] = tested on: VRE 2: VRE ATCC 29212; assay: organism not typed
Procedure: as §5, §6, §7, §8, §9, §10

## CC[C@H](C)[C@H](NC(=O)[C@@H](Cc1ccccc1)NC)C(=O)N[C@@H](CO)C(=O)N[C@H](CCC(N)=O)C(=O)N[C@@H](C(=O)N[C@H](C(=O)N[C@@H](CO)C(=O)N[C@H]1C(=O)N[C@@H](C)C(=O)N[C@@H](CC(C)C)C(=O)N[C@@H]([C@@H](C)CC)C(=O)O[C@H]1C)[C@@H](C)CC)[C@@H](C)CC [Compound 13, Leu10-teixobactin] (H-[dNMeF]IS[dQ][d(aIle)]IS[dT]ALI; ester 8-C)
[1]
  MIC: 0.25 μg mL^–1
[2]; 2: DR 42412 (sputum, 24 h)
  MIC: ≤0.0625 μg mL^–1
  MIC (without polysorbate 80): 2 µg/mL (≈ 1.66 µM)
[2]; MRSA 2, MHB containing polysorbate 80 (0.002%, v/v), 37 °C, 24 h
  MIC (with polysorbate 80): ≤ 0.0625 µg/mL
[3]; ATCC 700699, 24 h
  MIC: 0.25 μg mL^–1
  MIC (without polysorbate 80): 2 µg/mL (≈ 1.66 µM)
[3]; MRSA 1 (MRSA ATCC 700699), plated on MHA, 37 °C, 24 h
  MBC: 2 μg mL^–1
[3]; MRSA 1, MHB containing polysorbate 80 (0.002%, v/v), 37 °C, 24 h, two independent duplicates
  MIC (with polysorbate 80): 0.25 µg/mL (≈ 0.208 µM)
[4]; 3: DM21455 (eye, 24 h)
  MIC: ≤0.0625 μg mL^–1
  MIC (without polysorbate 80): 2 µg/mL (≈ 1.66 µM)
[4]; MRSA 3, MHB containing polysorbate 80 (0.002%, v/v), 37 °C, 24 h
  MIC (with polysorbate 80): ≤ 0.0625 µg/mL
[5]; ATCC 29213, 24 h
  MIC (without polysorbate 80): 1 µg/mL (≈ 0.832 µM)
[5]; S. aureus ATCC 29213, MHB containing polysorbate 80 (0.002%, v/v), 37 °C, 24 h
  MIC (with polysorbate 80): ≤ 0.0625 µg/mL
[5]; Staphylococcus aureus ATCC 29213, plated on MHA, 37 °C, 24 h
  MBC: 0.125 μg mL^–1
[6]
  lipid II spot on TLC: complete disappearance of the lipid II spot
[7]
  MIC: ~1 μg mL^–1
[8]
  time to complete bactericidal activity: ≤ 8 h
[9]; ATCC 700802, 24 h
  MIC: 0.25 μg mL^–1
  MIC (without polysorbate 80): 2 µg/mL (≈ 1.66 µM)
[9]; VRE 1, MHB containing polysorbate 80 (0.002%, v/v), 37 °C, 24 h
  MIC (with polysorbate 80): 0.25 µg/mL (≈ 0.208 µM)
[10]; ATCC 29212, 24 h
  MIC: 0.25 μg mL^–1
  MIC (without polysorbate 80): 2 µg/mL (≈ 1.66 µM)
[10]; VRE 2, MHB containing polysorbate 80 (0.002%, v/v), 37 °C, 24 h
  MIC (with polysorbate 80): 0.25 µg/mL (≈ 0.208 µM)
